Drawing on ChEMBL document CHEMBL1132907, “The design and synthesis of the high efficacy, non-peptide CCK1 receptor agonist PD170292” (Bioorg Med Chem Lett, 2000), this text covers IC50 and EC50 for 4 molecules.

The target of test [1] is T1, Gastrin/cholecystokinin type B receptor (Mus musculus, UniProt P56481).
T1 sequence (P56481 whole entry): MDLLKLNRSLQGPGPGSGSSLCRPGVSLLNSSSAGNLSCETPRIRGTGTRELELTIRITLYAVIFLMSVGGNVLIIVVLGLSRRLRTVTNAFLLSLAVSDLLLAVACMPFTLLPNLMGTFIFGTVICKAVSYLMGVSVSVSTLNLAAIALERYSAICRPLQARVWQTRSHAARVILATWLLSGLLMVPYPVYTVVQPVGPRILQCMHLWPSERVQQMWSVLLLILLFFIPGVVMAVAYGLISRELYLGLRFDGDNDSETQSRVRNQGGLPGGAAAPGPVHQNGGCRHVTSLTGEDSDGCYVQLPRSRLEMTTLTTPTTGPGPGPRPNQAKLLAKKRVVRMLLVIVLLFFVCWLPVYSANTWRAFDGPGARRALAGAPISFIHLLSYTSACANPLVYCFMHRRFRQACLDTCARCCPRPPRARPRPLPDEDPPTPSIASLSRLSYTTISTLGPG
In words: Binding affinity towards Cholecystokinin type B receptor in mouse cortex membrane. In kind it is cell membranes.

The target of test [2] is T2, Cholecystokinin receptor type A (Rattus norvegicus, UniProt P30551).
T2 sequence (P30551 whole entry): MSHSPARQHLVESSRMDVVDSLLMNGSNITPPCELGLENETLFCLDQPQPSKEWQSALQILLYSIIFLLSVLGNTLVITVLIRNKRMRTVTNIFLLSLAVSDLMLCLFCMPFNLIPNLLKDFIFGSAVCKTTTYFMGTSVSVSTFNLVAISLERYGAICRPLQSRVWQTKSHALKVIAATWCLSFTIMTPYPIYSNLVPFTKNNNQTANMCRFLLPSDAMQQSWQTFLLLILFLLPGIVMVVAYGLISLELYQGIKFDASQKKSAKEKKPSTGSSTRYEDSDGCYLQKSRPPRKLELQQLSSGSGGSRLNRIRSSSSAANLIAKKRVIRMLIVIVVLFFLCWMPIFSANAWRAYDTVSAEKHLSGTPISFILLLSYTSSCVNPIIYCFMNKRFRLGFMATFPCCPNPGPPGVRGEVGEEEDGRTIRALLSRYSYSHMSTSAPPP
The experiment in a line: Compound was evaluated for the binding affinity towards rat pancreatic Cholecystokinin type A receptor.

A further test is filed under the species Rattus norvegicus. The experiment in a line: Compound was evaluated for the stimulation of amylase secretion in isolated rat pancreatic acini.
Test [3] concerns Jurkat. In words: Compound was tested for [Ca2+] mobilization in Jurkat cells at 1 uM; Inactive. The format is functional, cell-based, Homo sapiens.
The subject of test [4] is Jurkat. In words: Compound was evaluated for calcium mobilization in Jurkat cells. The format is functional, cell-based. Conditions: Homo sapiens; call rule not given here.

`O=C(CC(Cc1c[nH]c2ccccc12)(NC(=O)OC1C2CC3CC(C2)CC1C3)C(=O)NCCc1ccccc1)NCCCCNC(=O)Nc1ccccc1Cl` (configuration not stated): the IC50 in test [1] was determined as 3600 nM; in test [2] it was 150 nM. Further, the EC50 in the test listed under Rattus norvegicus turned out to be 480 nM.
For `CC(Cc1c[nH]c2ccccc12)(NC(=O)OC1C2CC3CC(C2)CC1C3)C(=O)N[C@H](CC(=O)O)Cc1ccc(F)cc1` (single isomer, unassigned), the figures for the IC50 in test [1] and in test [2] were 0.083 nM and 75 nM, respectively.
Regarding `Cc1ccccc1NC(=O)NCCCC[C@@H](CC(=O)O)NC(=O)[C@@](C)(Cc1c[nH]c2ccccc12)NC(=O)OC1C2CC3CC(C2)CC1C3` (some centres not stated) [PD-170292], the EC50 result with Jurkat [3] is “Not Active”; in the test listed under Rattus norvegicus, 5 nM. Further, the IC50 in test [1] turned out to be 6.7 nM; in the test on Jurkat [4] it was 40 nM; in test [2], 1.2 nM.
Regarding `CSCC[C@H](NC(=O)[C@H](Cc1ccc(OS(=O)(=O)O)cc1)NC(=O)[C@@H](N)CC(=O)O)C(=O)NCC(=O)N[C@@H](Cc1c[nH]c2ccccc12)C(=O)N[C@@H](CCSC)C(=O)N[C@@H](CC(=O)O)C(=O)N[C@@H](Cc1ccccc1)C(N)=O` [SINCALIDE], the results for the EC50 with Jurkat [4] and in the test filed under Rattus norvegicus were 2 nM and 0.02 nM, respectively.
